Reference: patent US20060194821A1, “Compounds inhibiting the aggregation of superoxide dismutase-1” (The Brigham and women's Hospital, Inc., priority 2005, published 2006)
Entries after “also recorded” stand apart in the source; their conditions may differ.

Key:
Assay type in all cases: biochemical
SOD = assay: Testing of structural analogs for inhibition of SOD aggregation; conditions: Example 2, compounds of FIG. 2
Procedure: (§1) Aggregation assays for screening were prepared by adding a stock solution of compound to a protein solution (final concentrations: 100 μM compound, 50 μM protein). Following a 15 minute preincubation period at 37° C., 5 mM EDTA was added to initiate aggregation. Aliquots were periodically removed and analyzed for the amount of SOD-1 dimer present. This value correlated in all cases with the appearance of oligomers by gel filtration on a Superdex 200™ (3.2/30) gel filtration column (Pharmacia). All chromatography was performed in TBS, pH 7.4 (20 mM Tris, 150 mM NaCl) on a Waters 2690 Alliance HPLC and monitored at 220 and 276 nm. […] Assays in the absence of EDTA were carried as described previously (16). For Apo-A4V experiments, buffers were treated with CHELEX (except those containing EDTA) and experiments were performed in plastic tubes to avoid introduction of contaminating zinc into the Apo-protein.
A structural analysis was performed on the 15 compounds found to be active in the assays described in Example 1 (see FIG. 1). […] Although most of the compounds tested were purchased commercially, two (1,2-di-[6-Mercapto-2H-[1,2,4]triazine-3,5-dione]ethane; and di-{5-[1H-pyrimidine-2,4-dione]methyl}thioether) were synthesized as described in Example 3.

[1] = target: T1, A4V, a FALS-linked variant of SOD-1 (Homo sapiens, UniProt P00441, A5V); assay: A4V aggregation assay with EDTA (SOD-1 dimer loss by gel filtration); conditions: 100 μM compound, 50 μM protein
T1 construct: made in house
T1 sequence (P00441 2-154 A5V limits assumed): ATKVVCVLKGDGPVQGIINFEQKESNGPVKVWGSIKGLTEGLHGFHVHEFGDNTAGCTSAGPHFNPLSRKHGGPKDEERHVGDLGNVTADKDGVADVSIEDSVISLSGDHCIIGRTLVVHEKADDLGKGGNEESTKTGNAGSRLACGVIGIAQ
Procedure: SOD-1 dimer was purified on a Superdex 75™ (16/60) gel filtration column (Pharmacia) to produce starting material for each aggregation experiment. Metal analyses were carried by inductive coupled plasma mass-spectrometry (ICP-MS). WT and G93A were nearly fully metallated, and G85R and A4V were deficient in zinc and copper, respectively.
as §1

A4V/V7F/V148F = target: T2, A4V/V7F/V148F (Homo sapiens, UniProt P00441, A5V/V149F/V8F); assay: Aggregation of A4V/V7F/V148F (putative binding site disturbed); conditions: binding site disturbed by V7F/V148F
T2 construct: made in house; host or cells: E. coli
T2 sequence (P00441 2-154 A5V/V8F/V149F limits assumed): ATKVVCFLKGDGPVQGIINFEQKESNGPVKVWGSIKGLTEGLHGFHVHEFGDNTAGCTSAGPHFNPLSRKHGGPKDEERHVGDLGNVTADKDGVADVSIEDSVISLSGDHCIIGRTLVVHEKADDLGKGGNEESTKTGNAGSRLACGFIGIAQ
Procedure: as §1
To investigate the effect of partially capping the cavity with hydrophobic moieties, residues V148 and V7, the sidechains of which protruded into the cavity, were mutated to phenylalanine. […] Filling cavities in protein structures with hydrophobic side chains often stabilizes the protein structure (30, 31), lysozyme being a classic example (32).
Three variants of SOD-1, in which the V7F and V148F mutations were introduced into WT, A4V and G93A, were cloned, expressed in E. coli and purified as described previously (15). Each protein was subjected to guanidine chloride (GdnCl) unfolding and fluorescence intensity (348 nm) was monitored at 25° C. WT enzyme was completely unfolded at 3.5 M GdnCl (Cm=3.2 M, where Cm is the midpoint of transition), while A4V was completely unfolded at 1.9 M GdnCl (Cm=1.51 M). […] G93A/V7F/V148F was slightly more resistant to denaturation than G93A. No significant effect of the two V→F mutations on the denaturation of WT (i.e., WT vs. V7F/V148F) could be measured. The V→F mutations stabilized both A4V and G93A against EDTA induced aggregation. […] Similarly, G93A/V7F/V148F aggregated slightly more slowly than G93A.

G93A = target: T3, G93A (Homo sapiens, UniProt P00441, G94A); assay: EDTA-induced aggregation of G93A
T3 construct: made in house
T3 sequence (P00441 2-154 G94A limits assumed): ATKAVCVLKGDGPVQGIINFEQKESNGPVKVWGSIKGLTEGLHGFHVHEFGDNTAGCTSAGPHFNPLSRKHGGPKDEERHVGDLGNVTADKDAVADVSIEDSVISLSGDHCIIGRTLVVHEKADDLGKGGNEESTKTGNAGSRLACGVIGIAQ
Procedure: as §1

G85R = target: T4, G85R (Homo sapiens, UniProt P00441, G86R); assay: EDTA-induced aggregation of G85R
T4 construct: made in house
T4 sequence (P00441 2-154 G86R limits assumed): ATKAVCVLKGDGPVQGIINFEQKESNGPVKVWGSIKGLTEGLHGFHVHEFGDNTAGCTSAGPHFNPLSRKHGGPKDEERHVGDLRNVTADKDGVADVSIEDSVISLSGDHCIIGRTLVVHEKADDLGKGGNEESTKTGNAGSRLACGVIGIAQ
Procedure: as §1

A4V = target: T5, A4V (Homo sapiens, UniProt P00441, A5V); assay: Guanidinium chloride unfolding of A4V (fluorescence); conditions: 5 μM protein, fluorescence 348 nm
T5 construct: made in house
T5 sequence (P00441 2-154 A5V limits assumed): as the sequence (P00441 2-154 A5V limits assumed) above
Description: Equilibrium unfolding transition, as a function of GdnCl concentration, was monitored by fluorescence spectroscopy. The fluorescence measurements were done on a Hitachi f-4500 spectrofluorometer in a 1-cm cell connected to a circulation water bath. The excitation and emission wavelengths were fixed at 278 and 348 nm, respectively, after making appropriate corrections for buffer and GdnCl. The slit width was 5 nm for both monochromators. Each measurement was an average of five readings. Protein concentration used for fluorescence experiments was 5 μM. The data were analyzed directly for a two-state (N→U) transition as follows: the raw data for the GdnCl-induced denaturation studies were converted to fractions of the protein in the unfolded state (fu) as a function of GdnCl concentration using the equation: fu=Y0−(Yf+mf[GdnCl.])/(Yu+mu[GdnCl.])−(Yf+mf[GdnCl.]) where Y0 is the observed spectroscopic property, Yf and mf are the […] of the folded state baseline and Yu and mu represent the respective values of the unfolded baseline. The folded fraction was calculated as (fn=1−fu) and the equilibrium constant was determined by Keq=fu/fn. The free energy of unfolding was determined using the equation ΔG=−RT ln(Keq) where T is the temperature in Kelvin and R is the universal gas constant (1.987 cal mol−1 K−1).

Compound	inhibition of SOD aggregation by structural analogs (SOD)	inhibition of A4V aggregation (in words) [1]	change in the aggregation rate of A4V/V7F/V148F (A4V/V7F/V148F)	inhibition of G93A aggregation (G93A)	inhibition of G85R aggregation (G85R)	stabilization of A4V against GdnCl induced unfolding (expressed as ΔG) (A4V)
O=c1[nH]c(=O)n(CCn2nc(S)c(=O)[nH]c2=O)nc1S [1,2-di-[6-Mercapto-2H-[1,2,4]triazine-3,5-dione]ethane]	most active					
O=c1[nH]cc(CSc2n[nH]c(=O)[nH]c2=O)c(=O)[nH]1 [6-{[(2,4-dioxo-1,2,3,4-tetrahydropyrimidin-5-yl)methyl]thio}-1,2,4-triazine-3,5(2H,4H)-dione]	most active					
O=c1cc(Nc2ccc(Cl)cc2)[nH]c(=O)[nH]1 [Compound 2, 6-[(4-chlorophenyl)amino]pyrimidine-2,4(1H,4H)-dione]		most potent A4V aggregation inhibitors; also recorded: among the most potent aggregation inhibitors	no appreciable change	among the best inhibitors	among the best inhibitors	stabilized A4V nearly to WT levels; also recorded: stabilizes the A4V dimer to an extent comparable to the difference in stability between the invariably lethal A4V and WT SOD-1
O=c1[nH]nc(SCc2ccc(Cl)cc2)c(=O)[nH]1 [Compound 3, 6-[(4-chlorobenzyl)thio]1,2,4-triazine-3,5(2H,4H)-dione]		most potent A4V aggregation inhibitors; also recorded: among the most potent aggregation inhibitors	no appreciable change	among the best inhibitors	among the best inhibitors	stabilized A4V nearly to WT levels
Oc1ccc(Br)cc1/C=N/c1ccc(F)cc1 [Compound 4, 4-bromo-2-{(E)-[(4-fluorophenyl)imino]methyl}phenol]		most potent A4V aggregation inhibitors; also recorded: among the most potent aggregation inhibitors	no appreciable change	among the best inhibitors	among the best inhibitors	stabilized A4V nearly to WT levels
O=c1[nH]nc(SCc2ccc(F)cc2)c(=O)[nH]1 [Compound 7, 6-[(4-fluorobenzyl)thio]-1,2,4-triazine-3,5(2H,4H)-dione]		most potent A4V aggregation inhibitors; also recorded: among the most potent aggregation inhibitors	no appreciable change	among the best inhibitors	among the best inhibitors	stabilized A4V nearly to WT levels
O=c1[nH]cc(CSCc2c[nH]c(=O)[nH]c2=O)c(=O)[nH]1 [di-{5-[1H-pyrimidine-2,4-dione]methyl}thioether]	most active					
